Experimental data as given in patent US8436023B2, “Cyclohexyl-azetidinyl antagonists of CCR2” (Janssen Pharmaceutica N.V., priority 2010, dated 2013).

Molecular target: T1, CCR2 (Homo sapiens, UniProt P41597)
T1 construct: host or cells: THP-1 human monocytic cells
T1 sequence (P41597 1-360 isoform P41597-2): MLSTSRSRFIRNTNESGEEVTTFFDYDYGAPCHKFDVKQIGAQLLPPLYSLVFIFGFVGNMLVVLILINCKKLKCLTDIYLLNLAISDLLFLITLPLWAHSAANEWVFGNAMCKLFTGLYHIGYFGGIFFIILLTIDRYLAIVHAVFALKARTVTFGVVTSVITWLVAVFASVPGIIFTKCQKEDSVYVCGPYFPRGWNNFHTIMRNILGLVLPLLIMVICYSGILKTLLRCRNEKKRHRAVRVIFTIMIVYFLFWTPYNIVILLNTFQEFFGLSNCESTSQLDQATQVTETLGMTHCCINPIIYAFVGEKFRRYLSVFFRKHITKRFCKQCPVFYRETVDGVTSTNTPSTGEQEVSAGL
Assay: MCP-1 Receptor Binding Assay in THP-1 Cells
Details: 0.5 nM 125I labeled MCP-1, 2 hours at 30° C., less polar isomer tested where stated, read-out: Inhibition of MCP-1 Binding IC50, CCR2 Binding
In short: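 Whole THP-1 cells incubated 2 h at 30 °C with 0.5 nM 125I-MCP-1 and varying concentrations of test compound; bound radioactivity counted after filter harvesting. Where no IC50 obtained, % inhibition given at 25 μM.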

SMILES | IC50
CCOC(=O)C1CCC(N2CC(NC(=O)CNc3nn(C(N)=O)c4ccc(C(F)(F)F)cc34)C2)CC1 (stereo not drawn) [Example 89, 4-{3-[2-(1-Carbamoyl-5-trifluoromethyl-1H-indazol-3-ylamino)-acetylamino]-azetidin-1-yl}-cyclohexane carboxylic acid ethyl ester] | 56 nM
CC(C)NC(=O)n1nc(NCC(=O)NC2CN(C3CCC(c4ccccc4)CC3)C2)c2cc(C(F)(F)F)ccc21 (stereo not drawn) [Example 90, 3-({[1-(4-Phenyl-cyclohexyl)-azetidin-3-ylcarbamoyl]-methyl}-amino)-5-trifluoromethyl-indazole-1-carboxylic acid isopropylamide] | 29 nM
COc1ccc(C2CCC(N3CC(NC(=O)CNc4nn(C(=O)NC(C)C)c5ccc(C(F)(F)F)cc45)C3)CC2)cn1 (stereo not drawn) [Example 91, 3-[({1-[4-(6-Methoxy-pyridin-3-yl)-cyclohexyl]-azetidin-3-ylcarbamoyl}-methyl)-amino]-5-trifluoromethyl-indazole-1-carboxylic acid isopropylamide] | 14 nM
CC(C)NC(=O)n1nc(NCC(=O)NC2CN(C3CCC(C(C)C)CC3)C2)c2cc(C(F)(F)F)ccc21 (stereo not drawn) [Example 92, 3-({[1-(4-Isopropyl-cyclohexyl)-azetidin-3-ylcarbamoyl]-methyl}-amino)-5-trifluoromethyl-indazole-1-carboxylic acid isopropylamide] | 1600 nM
CC(C)NC(=O)n1nc(NCC(=O)NC2CN(C3CCC(C4CCCCC4)CC3)C2)c2cc(C(F)(F)F)ccc21 (stereo not drawn) [Example 93, 3-{[(1-Bicyclohexyl-4-yl-azetidin-3-ylcarbamoyl)-methyl]-amino}-5-trifluoromethyl-indazole-1-carboxylic acid isopropylamide] | 3100 nM
C=CCn1nc(NCC(=O)NC2CN(C3CCC(C(=O)OCC)CC3)C2)c2cc(C(F)(F)F)ccc21 (stereo not drawn) [Example 94, 4-{3-[2-(1-Allyl-5-trifluoromethyl-1H-indazol-3-ylamino)-acetylamino]-azetidin-1-yl}-cyclohexanecarboxylic acid ethyl ester] | 53 nM

Now from value to compound:

IC50 | SMILES
3600 nM | C=CCn1nc(NCC(=O)NC2CN(C3CCC(C4CCCCC4)CC3)C2)c2cc(C(F)(F)F)ccc21 (stereo not drawn) [Example 95, 2-(1-Allyl-5-trifluoromethyl-1H-indazol-3-ylamino)-N-(1-bicyclohexyl-4-yl-azetidin-3-yl)-acetamide]
270 nM | COc1cccc(C2(O)CCC(N3CC(NC(=O)CNc4nn(Cc5ccccc5)c5ccc(C(F)(F)F)cc45)C3)CC2)n1 (stereo not drawn) [Example 96, 2-(1-Benzyl-5-trifluoromethyl-1H-indazol-3-ylamino)-N-{1-[4-hydroxy-4-(6-methoxy-pyridin-2-yl)-cyclohexyl]-azetidin-3-yl}-acetamide]
170 nM | CCOC(=O)C1CCC(N2CC(NC(=O)CNc3nn(Cc4ccccc4)c4ccc(C(F)(F)F)cc34)C2)CC1 (stereo not drawn) [Example 97, 4-{3-[2-(1-Benzyl-5-trifluoromethyl-1H-indazol-3-ylamino)-acetylamino]-azetidin-1-yl}-cyclohexane carboxylic acid ethyl ester]
5900 nM | CC(C)C1CCC(N2CC(NC(=O)CNc3nn(Cc4ccccc4)c4ccc(C(F)(F)F)cc34)C2)CC1 (stereo not drawn) [Example 98, 2-(1-Benzyl-5-trifluoromethyl-1H-indazol-3-ylamino)-N-[1-(4-isopropyl-cyclohexyl)-azetidin-3-yl]-acetamide]
230 nM | CCOC(=O)C1CCC(N2CC(NC(=O)CNc3nn(S(C)(=O)=O)c4ccc(C(F)(F)F)cc34)C2)CC1 (stereo not drawn) [Example 99, 4-{3-[2-(1-Methanesulfonyl-5-trifluoromethyl-1H-indazol-3-ylamino)-acetylamino]-azetidin-1-yl}-cyclohexane carboxylic acid ethyl ester]
3700 nM | COc1ccc(C2CCC(N3CC(NC(=O)CNc4nn(S(C)(=O)=O)c5ccc(C(F)(F)F)cc45)C3)CC2)cn1 (stereo not drawn) [Example 100, 2-(1-Methanesulfonyl-5-trifluoromethyl-1H-indazol-3-ylamino)-N-{1-[4-(6-methoxy-pyridin-3-yl)-cyclohexyl]-azetidin-3-yl}-acetamide]
